Assay results reported in patent US20170184695A1, “IMAGING OF CREATINE KINASE ENZYME EXPRESSION IN CANCEROUS TISSUES” (Sidra Medical and Research Center, priority 2014, published 2017).

System: CK enzyme expressed in the tumor
Assay: In vivo CEST imaging of creatine kinase expression in tumor after tail vein injection of PCr
Conditions: 60 minutes post infusion (tail vein injection of PCr) vs base line CEST map, FIG. 3
Procedure: In certain embodiments, the radio frequency (RF) pulse can be provided at different frequency offsets. In certain embodiments, to detect the conversion of phosphocreatine to creatine, an RF pulse was applied at a frequency offset of about 1.8 ppm for a period of about 1 to about 3 seconds.
“b” is the base line CEST map from the same slice. “c” is a CEST map of the same slice at 60 minutes following tail vein injection of PCr.

CN(CC(=O)O)C(=N)NP(=O)(O)O [PCr, phosphocreatine]
increase in CEST contrast: about 11%
